Blank lines part the entries; values can stand above or below the compound they belong to.
Tests used:
[1] = molecular target: T1, human neutrophil elastase (Homo sapiens, UniProt P08246); assay: Inhibitory activity on human neutrophil elastase (HNE) in vitro; assay type: biochemical; conditions: human neutrophil elastase 0.2 U/ml, substrate MeO-Suc-Ala-Ala-Pro-Val-pNA 0.5 mM, 37° C., pH 7.5
T1 construct: purchased Elastine Product Co., Inc
T1 sequence (P08246 30-267): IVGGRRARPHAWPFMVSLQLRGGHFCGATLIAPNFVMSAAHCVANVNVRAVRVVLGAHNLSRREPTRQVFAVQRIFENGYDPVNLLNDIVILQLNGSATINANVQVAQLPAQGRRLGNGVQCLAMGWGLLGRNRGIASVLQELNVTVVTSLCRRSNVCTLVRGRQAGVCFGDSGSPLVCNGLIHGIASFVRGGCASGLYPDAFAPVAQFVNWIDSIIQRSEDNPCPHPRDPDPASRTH
Protocol: Experiment 1: Inhibitory Activity on Human Neutrophil Elastase (HNE)
The inhibitory activity of the compound of the present invention in vitro on human neutrophil elastase was examined by this experiment.
To 100 mM of HEPES {[N-(2-hydroxyethyl)piperazine-N′-(2-ethanesulfonic acid)], pH 7.5}buffer solution containing 1M NaCl and 0.001% Brij-35 (polyoxyethylene lauryl ether) were added human neutrophil elastase (final concentration: 0.2 U/ml, Elastine Product Co., Inc.) and the compound of the present invention (dissolved in 10% dimethyl sulfoxide; final concentration: 10^−10˜3×10^−3 M). The mixture was pre-incubated for 3 minutes at 37° C. Thereto was added MeO-Suc-Ala-Ala-Pro-Val-pNA (methoxysuccinyl-alanyl-alanyl-prolyl-valyl-p-nitroanilide (Sigma Chemical Co.)) as a substrate to give the final concentration of 0.5 mM, and the reaction was initiated. Under this condition, the producing rate of the reaction product, p-nitroanilide (pNA) at 37° C. was estimated by measuring the absorbance at 404 nm for 3 minutes.
The inhibitory activity of the compound of the present invention against human neutrophil elastase (HNE) is calculated according to the following formula.
The concentration of the compound of the present invention to be required to achieve 50% HNE inhibition (i.e., IC50) was calculated based on the concentration-inhibitory rate curve of the compound of the present invention.
As a comparative compound, N-[(1S)-2-((2S)-2-{N-[(1S)-3,3,3-trifluoro-1-(methylethyl)-2-oxopropyl]carbamoyl}pyrrolidinyl)-1-(methylethyl)-2-oxoethyl](imidazol-4-yl)carboxamide was used, and the same assay was carried out. The planar structure of this compound was the same as one of compound (22) disclosed in J. Med. Chem., 1997, 40, 1876–1885.

[2] = system: pulmonary hemorrhage induced by human neutrophil elastase (HNE); assay: Inhibitory activity on pulmonary hemorrhage induced by human neutrophil elastase (HNE); assay type: in vivo; conditions: hamster; for Pulmonary hemorrhage inhibitory rate (%): dose 3 mg/kg orally, 30 minutes prior to HNE
From the text: Experiment 3: Inhibitory Activity on Pulmonary Hemorrhage Induced by Human Neutrophil Elastase (HNE)
This experiment tested on in vivo efficacy of the compound of the present invention. When human neutrophil elastase is intratracheally administered to a hamster, the pulmonary hemorrhage is induced. A definite time later after administration of the elastase, in the bronchoalveolar lavage fluid by washing lung via trachea, hemoglobin is detected.
Hamsters (Syrian strain, 7–10 weeks old male) were divided into groups consisting of 3 to 6, and each group was treated as follows:
(A) A Group to which the Compound of the Present Invention was not Administered (Disease Control):
Physiological saline solution (0.2 ml) in which 25 unit of human neutrophil elastase (Elastin Product Co., Inc.) was dissolved was intratracheally administered to a hamster to induce the pulmonary hemorrhage. One hour later after administration of elastase, the hamsters were sacrificed by exsanquination, and alveoli were transtracheally washed twice with physiological saline (2.5 ml), and the hemoglobin concentration in the bronchoalveolar lavage fluid (5 ml) was determined by measuring the absorbance at 414 nm.
(B) A Group to which the Compound of the Present Invention was Administered:
A fixed amount of the compound of the present invention was dissolved in dimethyl sulfoxide (DMSO), and thereto was added 0.5% tragacanth gum to prepare a suspension. The suspension was orally administered to a hamster, 30 minutes prior to the administration of human neutrophil elastase (HNE) (final concentration of DMSO, 1%), and then, human neutrophil elastase was administered in the same manner as the above method (A). After 1 hour, the concentration of hemoglobin in the bronchoalveolar lavage fluid was determined in the same manner as the above method (A).
The hemorrhage inhibition activity of the compound of the present invention is represented as the hemorrhage inhibiting rate in the following formula.
The dose of the compound of the present invention to be required to achieve 50% inhibition of pulmonary hemorrhage (i.e., ED50) was calculated based on the administration dose-hemorrhage inhibiting rate curve.
As a comparative example, the same experiment was also carried out on a comparative compound used in Experiment 1.
Some of the compounds of the present invention were compared with the comparative compound on the hemorrhage inhibitory rate at the dose of 3 mg/kg.

Compound: CC(C)[C@H](NC(=O)c1c[nH]cn1)C(=O)N1CCC[C@H]1C(=O)N[C@H](C(=O)C(F)(F)F)C(C)C [Comparative compound, N-[(1S)-2-((2S)-2-{N-[(1S)-3,3,3-trifluoro-1-(methylethyl)-2-oxopropyl]carbamoyl}pyrrolidinyl)-1-(methylethyl)-2-oxoethyl](imidazol-4-yl)carboxamide, reference compound]
- IC50 [1]: 78 nM
- Pulmonary hemorrhage inhibitory rate (%) [2]: 18%
- Inhibitory activity on pulmonary hemorrhage ED50 ([2]; orally administered 30 minutes prior to intratracheal HNE, hemoglobin in bronchoalveolar lavage fluid after 1 hour): >10 mg/kg

Compound: CC(C)[C@H](NC(=O)c1cc(-c2ccccc2)no1)C(=O)N1CCC[C@H]1C(=O)N[C@H](C(=O)C(F)(F)F)C(C)C [Example 24, N-[(1S)-2-((2S)-2-{N-[(1S)-3,3,3-trifluoro-1-(methylethyl)-2-oxopropyl]carbamoyl}pyrrolidinyl)-1-(methylethyl)-2-oxoethyl]-(3-phenylisoxazol-5-yl)carboxamide]
- IC50 [1]: 15 nM

Compound: CC(C)[C@H](NC(=O)c1ccc2snnc2c1)C(=O)N1CCC[C@H]1C(=O)N[C@H](C(=O)C(F)(F)F)C(C)C [Example 14, N-[(1S)-2-((2S)-2-{N-[(1S)-3,3,3-trifluoro-1-(methylethyl)-2-oxopropyl]carbamoyl}pyrrolidinyl)-1-(methylethyl)-2-oxoethyl](benzo[d]1,2,3-thiadiazol-5-yl)carboxamide]
- IC50 [1]: 12 nM

Compound: CC(C)[C@H](NC(=O)c1cnn(-c2ccccc2)c1)C(=O)N1CCC[C@H]1C(=O)N[C@H](C(=O)C(F)(F)F)C(C)C [Example 33, N-[(1S)-2-((2S)-2-{N-[(1S)-3,3,3-trifluoro-1-(methylethyl)-2-oxopropyl]carbamoyl}pyrrolidinyl)-1-(methylethyl)-2-oxoethyl]-(1-phenylpyrazol-4-yl)carboxamide]
- IC50 [1]: 12 nM

Compound: Cc1c(C(=O)N[C@H](C(=O)N2CCC[C@H]2C(=O)N[C@H](C(=O)C(F)(F)F)C(C)C)C(C)C)cnn1-c1cccc(F)c1 [Example 46, N-[(1S)-2-((2S)-2-{N-[(1S)-3,3,3-trifluoro-1-(methylethyl)-2-oxopropyl]carbamoyl}pyrrolidinyl)-1-(methylethyl)-2-oxoethyl]-[1-(3-fluorophenyl)-5-methylpyrazol-4-yl]carboxamide]
- IC50 [1]: 8.1 nM

Compound: Cc1c(C(=O)N[C@H](C(=O)N2CCC[C@H]2C(=O)N[C@H](C(=O)C(F)(F)F)C(C)C)C(C)C)cnn1-c1ccc(F)cc1 [Example 37, N-[(1S)-2-((2S)-2-{N-[(1S)-3,3,3-trifluoro-1-(methylethyl)-2-oxopropyl]carbamoyl}pyrrolidinyl)-1-(methylethyl)-2-oxoethyl]-[1-(4-fluorophenyl)-5-methylpyrazol-4-yl]carboxamide]
- IC50 [1]: 9.1 nM

Compound: CC(C)[C@H](NC(=O)c1ccc2c(c1)nnn2C(C)C)C(=O)N1CCC[C@H]1C(=O)N[C@H](C(=O)C(F)(F)F)C(C)C [Example 13, N-[(1S)-2-((2S)-2-{N-[(1S)-3,3,3-trifluoro-1-(methylethyl)-2-oxopropyl]carbamoyl}pyrrolidinyl)-1-(methylethyl)-2-oxoethyl]-[1-(methylethyl)benzotriazol-5-yl]carboxamide]
- IC50 [1]: 6.3 nM

More lines, main results first:

- IC50 [1]: 9.2 nM
Compound: CC(C)[C@H](NC(=O)c1cc(-c2ccccc2)on1)C(=O)N1CCC[C@H]1C(=O)N[C@H](C(=O)C(F)(F)F)C(C)C [Example 9, N-[(1S)-2-((2S)-2-(N-[(1S)-3,3,3-trifluoro-1-(methylethyl)-2-oxopropyl]carbamoyl}pyrrolidinyl)-1-(methylethyl)-2-oxoethyl]-(5-phenylisoxazol-3-yl)carboxamide]

- IC50 [1]: 8.5 nM
Compound: Cc1c(C(=O)N[C@H](C(=O)N2CCC[C@H]2C(=O)N[C@H](C(=O)C(F)(F)F)C(C)C)C(C)C)cnn1C(C)(C)C [Example 32, N-[(1S)-2-((2S)-2-{N-[(1S)-3,3,3-trifluoro-1-(methylethyl)-2-oxopropyl]carbamoyl}pyrrolidinyl)-1-(methylethyl)-2-oxoethyl]-(1-tert-butyl-5-methylpyrazol-4-yl)carboxamide]

- IC50 [1]: 11 nM
Compound: Cc1cc2onc(C(=O)N[C@H](C(=O)N3CCC[C@H]3C(=O)N[C@H](C(=O)C(F)(F)F)C(C)C)C(C)C)c2cc1C [Example 17, N-[(1S)-2-((2S)-2-{N-[(1S)-3,3,3-trifluoro-1-(methylethyl)-2-oxopropyl]carbamoyl}pyrrolidinyl)-1-(methylethyl)-2-oxoethyl]-(5,6-dimethylbenzo[d]isoxazol-3-yl)carboxamide]
- Pulmonary hemorrhage inhibitory rate (%) [2]: 59%

- IC50 [1]: 12 nM
Compound: Cc1ccc2onc(C(=O)N[C@H](C(=O)N3CCC[C@H]3C(=O)N[C@H](C(=O)C(F)(F)F)C(C)C)C(C)C)c2c1 [Example 18, N-[(1S)-2-((2S)-2-{N-[(1S)-3,3,3-trifluoro-1-(methylethyl)-2-oxopropyl]carbamoyl}pyrrolidinyl)-1-(methylethyl)-2-oxoethyl]-(5-methylbenzo[d]isoxazol-3-yl)carboxamide]

- IC50 [1]: 10 nM
Compound: Cc1ccc(-n2ncc(C(=O)N[C@H](C(=O)N3CCC[C@H]3C(=O)N[C@H](C(=O)C(F)(F)F)C(C)C)C(C)C)c2C)cc1 [Example 39, N-[(1S)-2-((2S)-2-{N-[(1S)-3,3,3-trifluoro-1-(methylethyl)-2-oxopropyl]carbamoyl}pyrrolidinyl)-1-(methylethyl)-2-oxoethyl]-[5-methyl-1-(4-methylphenyl)pyrazol-4-yl]carboxamide]

- IC50 [1]: 22 nM
Compound: Cc1nsc(C)c1C(=O)N[C@H](C(=O)N1CCC[C@H]1C(=O)N[C@H](C(=O)C(F)(F)F)C(C)C)C(C)C [Example 5, N-[(1S)-2-((2S)-2-{N-[(1S)-3,3,3-trifluoro-1-(methylethyl)-2-oxopropyl]carbamoyl}pyrrolidinyl)-1-(methylethyl)-2-oxoethyl]-(3,5-dimethylisothiazol-4-yl)carboxamide]

- IC50 [1]: 11 nM
Compound: Cc1nocc1C(=O)N[C@H](C(=O)N1CCC[C@H]1C(=O)N[C@H](C(=O)C(F)(F)F)C(C)C)C(C)C [Example 21, N-[(1S)-2-((2S)-2-{N-[(1S)-3,3,3-trifluoro-1-(methylethyl)-2-oxopropyl]carbamoyl}pyrrolidinyl)-1-(methylethyl)-2-oxoethyl]-(3-methylisoxazol-4-yl)carboxamide]

- IC50 [1]: 9.8 nM
Compound: Cc1nn(-c2ccccc2)c(C)c1C(=O)N[C@H](C(=O)N1CCC[C@H]1C(=O)N[C@H](C(=O)C(F)(F)F)C(C)C)C(C)C [Example 34, N-[(1S)-2-((2S)-2-{N-[(1S)-3,3,3-trifluoro-1-(methylethyl)-2-oxopropyl]carbamoyl}pyrrolidinyl)-1-(methylethyl)-2-oxoethyl]-(3,5-dimethyl-1-phenylpyrazol-4-yl)carboxamide]

- IC50 [1]: 15 nM
Compound: CC(C)[C@H](NC(=O)c1cc(C(C)(C)C)no1)C(=O)N1CCC[C@H]1C(=O)N[C@H](C(=O)C(F)(F)F)C(C)C [Example 23, N-[(1S)-2-((2S)-2-{N-[(1S)-3,3,3-trifluoro-1-(methylethyl)-2-oxopropyl]carbamoyl}pyrrolidinyl)-1-(methylethyl)-2-oxoethyl]-(3-tert-butylisoxazol-5-yl)carboxamide]
